Toxic doses and inconclusive results are not listed. Rule as the data show it: active = T/C of 150% or more; inactive = T/C below 125%.
System: L1210 leukemia ip in BDF1 mice, survival T/C
Assay: NCI In Vivo Anticancer Drug Screen. Data for tumor model L1210 Leukemia (intraperitoneal) in B6D2F1 (BDF1) mice
Settings: endpoint: mean survival time, higher = longer survival
Outline: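 Transplanted-tumor mice were given test agent; controls received vehicle only. Survival readings from the two groups were divided (treated over control).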

[1] = dose: 50.0 mg/kg/injection, schedule: Q01DX001 (ip), vehicle: carboxymethylcellulose (CMC)
[2] = dose: 100.0 mg/kg/injection, schedule: Q01DX001 (ip), vehicle: carboxymethylcellulose (CMC)
[3] = dose: 200.0 mg/kg/injection, schedule: Q01DX001 (ip), vehicle: carboxymethylcellulose (CMC)
[4] = dose: 400.0 mg/kg/injection, schedule: Q01DX001 (ip), vehicle: carboxymethylcellulose (CMC)
[5] = dose: 100.0 mg/kg/injection, schedule: Q04DX003 (ip), vehicle: saline
[6] = dose: 200.0 mg/kg/injection, schedule: Q04DX003 (ip), vehicle: saline
[7] = dose: 400.0 mg/kg/injection, schedule: Q04DX003 (ip), vehicle: saline
[8] = dose: 100.0 mg/kg/injection, schedule: Q01DX001 (ip), vehicle: Klucel (hydroxypropylcellulose) (HPC)
[9] = dose: 200.0 mg/kg/injection, schedule: Q01DX001 (ip), vehicle: Klucel (hydroxypropylcellulose) (HPC)
[10] = dose: 400.0 mg/kg/injection, schedule: Q01DX001 (ip), vehicle: Klucel (hydroxypropylcellulose) (HPC)
[11] = dose: 100.0 mg/kg/injection, schedule: Q01DX001 (ip), vehicle: saline
[12] = dose: 200.0 mg/kg/injection, schedule: Q01DX001 (ip), vehicle: saline

Measured: T/C

O=S(=O)(Sc1ccc(N(CCCl)CCCl)cc1)c1ccc(N(CCCl)CCCl)cc1
inactive: [1] 109 % of control | [2] 100 % of control | [3] 117 % of control | [4] 109 % of control

OCCCc1cc(Br)ccc1O
inactive: [1] 105 % of control | [2] 100 % of control | [3] 100 % of control | [4] 92 % of control

O=[N+]([O-])c1ccc(OCCCOc2ccc(S(=O)(=O)F)cc2)cc1
inactive: [5] 102 % of control | [6] 102 % of control | [7] 106 % of control

c1ccc(-c2csc(-c3nc(-c4ccccc4)cs3)n2)cc1
inactive: dose: 100.0 mg/kg/injection, schedule: Q04DX003 (ip), vehicle: Klucel (hydroxypropylcellulose) (HPC) 90 % of control | dose: 200.0 mg/kg/injection, schedule: Q04DX003 (ip), vehicle: Klucel (hydroxypropylcellulose) (HPC) 95 % of control | dose: 400.0 mg/kg/injection, schedule: Q04DX003 (ip), vehicle: Klucel (hydroxypropylcellulose) (HPC) 102 % of control

O=C(O)c1ccc(N=C=S)cc1O
inactive: [8] 97 % of control | [9] 107 % of control | [10] 97 % of control

FC(F)(F)c1cccc(NC(=S)Nc2ccccc2S)c1
inactive: dose: 100.0 mg/kg/injection, schedule: Q01DX009 (ip), vehicle: saline with Tween-80 103 % of control | dose: 100.0 mg/kg/injection, schedule: Q04DX002 (ip), vehicle: saline with Tween-80 93 % of control | dose: 200.0 mg/kg/injection, schedule: Q01DX009 (ip), vehicle: saline with Tween-80 98 % of control | dose: 200.0 mg/kg/injection, schedule: Q04DX002 (ip), vehicle: saline with Tween-80 96 % of control | dose: 400.0 mg/kg/injection, schedule: Q01DX009 (ip), vehicle: saline with Tween-80 124 % of control | dose: 400.0 mg/kg/injection, schedule: Q04DX002 (ip), vehicle: saline with Tween-80 101 % of control

C=COC(=O)NC(Cc1ccccc1)C(=O)O (stereo not drawn)
inactive: [11] 97 % of control | [12] 89 % of control

COc1ccc(Nc2nc(N)nc(N)c2N)cc1
inactive: dose: 100.0 mg/kg/injection, schedule: Q01DX Z (ip), vehicle: saline 87 % of control

Nc1ccc(N=Nc2ccc(S(=O)(=O)Nc3nccs3)cc2)c(N)n1
inactive: [11] 102 % of control | [12] 96 % of control | dose: 400.0 mg/kg/injection, schedule: Q01DX001 (ip), vehicle: saline 88 % of control

CN1C(=O)CCC1=O
inactive: [5] 103 % of control | [6] 98 % of control | [7] 98 % of control

Oc1ccc2ccc(Cl)cc2c1
inactive: [2] 95 % of control | [3] 90 % of control | [4] 95 % of control

C/C(CCCCCCCCC#N)=N/NC(N)=O
inactive: [8] 103 % of control | [9] 106 % of control | [10] 105 % of control

C[N+]1(C2CCC3CCC2C3=O)CCCC1 (stereo not drawn)
inactive: dose: 75.0 mg/kg/injection, schedule: Q01DX001 (ip), vehicle: saline 97 % of control | dose: 150.0 mg/kg/injection, schedule: Q01DX001 (ip), vehicle: saline 97 % of control

CC(=O)Oc1c(-c2ccccc2)cc([N+](=O)[O-])cc1[N+](=O)[O-]
inactive: dose: 50.0 mg/kg/injection, schedule: Q04DX002 (ip), vehicle: Klucel (hydroxypropylcellulose) (HPC) 97 % of control | dose: 100.0 mg/kg/injection, schedule: Q04DX002 (ip), vehicle: Klucel (hydroxypropylcellulose) (HPC) 103 % of control | dose: 200.0 mg/kg/injection, schedule: Q04DX002 (ip), vehicle: Klucel (hydroxypropylcellulose) (HPC) 94 % of control

From PubChem BioAssay AID248 (DTP/NCI, 2004)
